Data: patent US20240101540A1, “TARGETED PROTEIN DEGRADATION OF PARP14 FOR USE IN THERAPY” (Ribon Therapeutics, Inc., priority 2022, published 2024)
Where a name gives a salt, the structure may show the parent alone.

Molecular target: T1, HiBiT tagged PARP14 (Homo sapiens, UniProt Q460N5)
T1 construct: engineered to contain a HiBiT tag on both alleles of the PARP14 gene; endogenous in cells; host or cells: Jurkat cells stably transfected with LgBiT (Promega), PARP14 locus edited by CRISPR/Cas9
Assay: HiBiT assay for the degradation of PARP14 (HiBiT tagged PARP14 in LgBiT expressing Jurkat cells, 2 or 24 hours)
Assay type: cell-based
Conditions: Assay B (Example B): HiBiT tagged PARP14 degradation in LgBiT expressing Jurkat cells, read-out: DC50
Summary of the method: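 Jurkat cells stably expressing LgBiT with CRISPR knock-in of C-terminal HiBiT on both PARP14 alleles, 5,000 cells/well, treated with compound dose-response at 37 °C for 2 or 24 h. Live Cell Substrate luminescence normalised to 0.1% DMSO wells; DC50 from 4-parameter fit with floating top, bottom, Hill.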

T1 sequence (Q460N5 whole entry): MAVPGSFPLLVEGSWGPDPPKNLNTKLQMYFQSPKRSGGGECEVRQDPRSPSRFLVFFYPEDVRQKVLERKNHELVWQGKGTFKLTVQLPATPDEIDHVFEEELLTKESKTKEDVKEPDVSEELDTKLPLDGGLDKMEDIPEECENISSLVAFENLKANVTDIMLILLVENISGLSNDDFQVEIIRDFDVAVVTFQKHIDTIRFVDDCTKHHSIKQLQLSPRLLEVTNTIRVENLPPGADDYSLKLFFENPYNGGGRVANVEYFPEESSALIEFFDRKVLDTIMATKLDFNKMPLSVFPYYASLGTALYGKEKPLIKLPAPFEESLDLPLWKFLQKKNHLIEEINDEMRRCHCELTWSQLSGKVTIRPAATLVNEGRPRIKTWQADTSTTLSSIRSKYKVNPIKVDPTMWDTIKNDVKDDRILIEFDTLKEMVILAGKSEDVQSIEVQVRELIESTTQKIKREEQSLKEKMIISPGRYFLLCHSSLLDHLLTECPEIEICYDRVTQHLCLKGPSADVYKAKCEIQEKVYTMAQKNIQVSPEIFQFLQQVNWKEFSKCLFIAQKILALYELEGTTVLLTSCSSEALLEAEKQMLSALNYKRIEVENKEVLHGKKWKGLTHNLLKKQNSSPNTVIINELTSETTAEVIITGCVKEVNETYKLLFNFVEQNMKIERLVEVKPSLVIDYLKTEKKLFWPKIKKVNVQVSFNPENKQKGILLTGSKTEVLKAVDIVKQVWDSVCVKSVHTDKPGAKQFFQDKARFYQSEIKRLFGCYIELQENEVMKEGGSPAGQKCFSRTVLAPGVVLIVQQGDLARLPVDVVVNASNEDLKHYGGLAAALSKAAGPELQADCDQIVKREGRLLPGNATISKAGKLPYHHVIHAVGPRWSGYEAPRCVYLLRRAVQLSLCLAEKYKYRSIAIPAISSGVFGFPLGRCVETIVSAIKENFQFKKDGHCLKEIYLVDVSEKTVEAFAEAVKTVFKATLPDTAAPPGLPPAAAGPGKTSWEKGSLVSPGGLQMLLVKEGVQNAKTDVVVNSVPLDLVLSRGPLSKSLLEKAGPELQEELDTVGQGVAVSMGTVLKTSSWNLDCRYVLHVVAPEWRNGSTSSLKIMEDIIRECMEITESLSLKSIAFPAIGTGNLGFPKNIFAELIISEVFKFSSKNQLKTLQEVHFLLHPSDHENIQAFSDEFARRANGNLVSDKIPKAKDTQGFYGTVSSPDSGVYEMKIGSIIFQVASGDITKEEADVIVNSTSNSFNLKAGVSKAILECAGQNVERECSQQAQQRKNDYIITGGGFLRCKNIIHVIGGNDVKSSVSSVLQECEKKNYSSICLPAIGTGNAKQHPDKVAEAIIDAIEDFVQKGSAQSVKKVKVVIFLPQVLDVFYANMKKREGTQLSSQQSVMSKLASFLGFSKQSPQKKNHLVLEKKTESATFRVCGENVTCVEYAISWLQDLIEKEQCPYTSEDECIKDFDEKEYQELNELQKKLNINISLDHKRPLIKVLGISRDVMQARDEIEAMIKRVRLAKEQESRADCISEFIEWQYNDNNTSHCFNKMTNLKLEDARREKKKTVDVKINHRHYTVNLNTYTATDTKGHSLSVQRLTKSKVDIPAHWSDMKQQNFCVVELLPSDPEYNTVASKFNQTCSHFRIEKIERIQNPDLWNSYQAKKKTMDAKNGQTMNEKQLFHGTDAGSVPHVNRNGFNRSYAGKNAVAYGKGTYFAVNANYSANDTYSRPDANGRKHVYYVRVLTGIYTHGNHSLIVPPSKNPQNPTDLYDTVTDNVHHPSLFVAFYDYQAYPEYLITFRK

Structure (SMILES) | DC50
O=C1CCC(Nc2ccc(N3CCC(CN4CCC(COc5cc(F)c6c(=O)[nH]c(CSC7CCOCC7)nc6c5)CC4)CC3)c(F)c2)C(=O)N1 (centres unmarked) [Example 144, 3-((3-fluoro-4-(4-((4-(((5-fluoro-4-oxo-2-(((tetrahydro-2H-pyran-4-yl)thio)methyl)-3,4-dihydroquinazolin-7-yl)oxy)methyl)piperidin-1-yl)methyl)piperidin-1-yl)phenyl)amino)piperidine-2,6-dione] | < 30 nM
O=C1CCC(Nc2ccc(N3CC(N4CCC(N5CCC(COc6cc(F)c7c(=O)[nH]c(CSC8CCOCC8)nc7c6)CC5)CC4)C3)c(F)c2)C(=O)N1 (centres unmarked) [Example 145] | < 30 nM
O=C1CCC(Nc2ccc(N3CCC(N4CC(N5CCC(COc6cc(F)c7c(=O)[nH]c(CCC8CCOCC8)nc7c6)CC5)C4)CC3)c(F)c2)C(=O)N1 (centres unmarked) [Example 146, 3-((3-fluoro-4-(4-(3-(4-(((5-fluoro-4-oxo-2-(2-(tetrahydro-2H-pyran-4-yl)ethyl)-3,4-dihydroquinazolin-7-yl)oxy)methyl)piperidin-1-yl)azetidin-1-yl)piperidin-1-yl)phenyl)amino)piperidine-2,6-dione formate] | < 30 nM
CN(c1ccc(NC2CCC(=O)NC2=O)cc1F)C1CC(CN2CCC(COc3cc(F)c4c(=O)[nH]c(CSC5CCOCC5)nc4c3)CC2)C1 (centres unmarked) [Example 147, 3-((3-fluoro-4-((3-((4-(((5-fluoro-4-oxo-2-(((tetrahydro-2H-pyran-4-yl)thio)methyl)-3,4-dihydroquinazolin-7-yl)oxy)methyl)piperidin-1-yl)methyl)cyclobutyl)(methyl)amino)phenyl)amino)piperidine-2,6-dione] | < 30 nM
O=C1CCC(Nc2ccc(N3CC(N4CC(N5CCC(COc6cc(F)c7c(=O)[nH]c(CSC8CCOCC8)nc7c6)CC5)C4)C3)c(F)c2)C(=O)N1 (centres unmarked) [Example 148, 3-((3-fluoro-4-(3-(4-(((5-fluoro-4-oxo-2-(((tetrahydro-2H-pyran-4-yl)thio)methyl)-3,4-dihydroquinazolin-7-yl)oxy)methyl)piperidin-1-yl)-[1,3′-biazetidin]-1′-yl)phenyl)amino)piperidine-2,6-dione formate] | < 30 nM
O=C1CCC(NC(=O)c2ccc(N3CCC(N4CCC(COc5cc(F)c6c(=O)[nH]c(CSC7CCOCC7)nc6c5)CC4)CC3)cc2F)C(=O)N1 (centres unmarked) [Example 149, N-(2,6-dioxopiperidin-3-yl)-2-fluoro-4-(4-(((5-fluoro-4-oxo-2-(((tetrahydro-2H-pyran-4-yl)thio)methyl)-3,4-dihydroquinazolin-7-yl)oxy)methyl)-[1,4′-bipiperidin]-1′-yl)benzamide] | < 30 nM

Continued, values first:

DC50 | Structure (SMILES)
< 30 nM | COc1cc(N2CCC(N3CC(N4CCC(COc5cc(F)c6c(=O)[nH]c(CSC7CCOCC7)nc6c5)CC4)C3)CC2)c(F)cc1NC1CCC(=O)NC1=O (centres unmarked) [Example 139]
< 30 nM | COc1cc(N2CCN(CCN3CCC(COc4cc(F)c5c(=O)[nH]c(CSC6CCOCC6)nc5c4)CC3)CC2)c(F)cc1NC1CCC(=O)NC1=O (centres unmarked) [Example 140]
< 30 nM | O=C1CCC(Nc2cc(F)c(N3CCN(CCN4CCC(COc5cc(F)c6c(=O)[nH]c(CSC7CCOCC7)nc6c5)CC4)CC3)cc2F)C(=O)N1 (centres unmarked) [Example 141]
< 30 nM | O=C1CCC(Nc2ccc(N3CCC(N4CC(N5CCC(COc6cc(F)c7c(=O)[nH]c(CSC8CCOCC8)nc7c6)CC5)C4)CC3)c(Cl)c2)C(=O)N1 (centres unmarked) [Example 142]
< 30 nM | O=C1CCC(Nc2ccc(N3CCC4(CC3)CC(N3CCC(COc5cc(F)c6c(=O)[nH]c(CSC7CCOCC7)nc6c5)CC3)C4)c(F)c2)C(=O)N1 (centres unmarked) [Example 143, 3-((3-fluoro-4-(2-(4-(((5-fluoro-4-oxo-2-(((tetrahydro-2H-pyran-4-yl)thio)methyl)-3,4-dihydroquinazolin-7-yl)oxy)methyl)piperidin-1-yl)-7-azaspiro[3.5]nonan-7-yl)phenyl)amino)piperidine-2,6-dione]
